Reference: PubChem BioAssay (NCI)
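Test compounds were applied to cells in 96-well plates for 48 hours at 5 doses. GI50 = concentration required for 50% inhibition of growth. At the TGI there is no net growth.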

How the values were obtained:
Test in all cases: NCI-60 cell line screen, 48 h
786-0 renal = tested on: 786-0 renal
A498 renal = tested on: A498 renal
A549 NSCLC = tested on: A549 NSCLC
ACHN renal = tested on: ACHN renal
BT-549 breast = tested on: BT-549 breast
CAKI-1 renal = tested on: CAKI-1 renal
CCRF-CEM leukemia = tested on: CCRF-CEM leukemia
COLO 205 colon = tested on: COLO 205 colon
DU-145 prostate = tested on: DU-145 prostate
EKVX NSCLC = tested on: EKVX NSCLC
HCC-2998 colon = tested on: HCC-2998 colon
HCT-116 colon = tested on: HCT-116 colon
HCT-15 colon = tested on: HCT-15 colon
HL-60(TB) leukemia = tested on: HL-60(TB) leukemia
HOP-62 NSCLC = tested on: HOP-62 NSCLC
HOP-92 NSCLC = tested on: HOP-92 NSCLC
HS 578T breast = tested on: HS 578T breast
HT29 colon = tested on: HT29 colon
IGROV1 ovarian = tested on: IGROV1 ovarian
K-562 leukemia = tested on: K-562 leukemia
KM12 colon = tested on: KM12 colon
LOX IMVI melanoma = tested on: LOX IMVI melanoma
M14 melanoma = tested on: M14 melanoma
MALME-3M melanoma = tested on: MALME-3M melanoma
MCF7 breast = tested on: MCF7 breast
MDA-MB-231 breast = tested on: MDA-MB-231 breast
MDA-MB-435 = tested on: MDA-MB-435
MDA-N = tested on: MDA-N
MOLT-4 leukemia = tested on: MOLT-4 leukemia
NCI-H23 lung = tested on: NCI-H23 lung
NCI-H460 lung = tested on: NCI-H460 lung
NCI-H522 lung = tested on: NCI-H522 lung
NCI/ADR-RES ovarian = tested on: NCI/ADR-RES ovarian
OVCAR-3 ovarian = tested on: OVCAR-3 ovarian
OVCAR-4 ovarian = tested on: OVCAR-4 ovarian
OVCAR-5 ovarian = tested on: OVCAR-5 ovarian
OVCAR-8 ovarian = tested on: OVCAR-8 ovarian
PC-3 prostate = tested on: PC-3 prostate
RPMI-8226 leukemia = tested on: RPMI-8226 leukemia
RXF 393 renal = tested on: RXF 393 renal
SF-268 CNS = tested on: SF-268 CNS
SF-295 CNS = tested on: SF-295 CNS
SF-539 CNS = tested on: SF-539 CNS
SK-MEL-2 melanoma = tested on: SK-MEL-2 melanoma
SK-MEL-28 melanoma = tested on: SK-MEL-28 melanoma
SK-MEL-5 melanoma = tested on: SK-MEL-5 melanoma
SK-OV-3 ovarian = tested on: SK-OV-3 ovarian
SN12C renal = tested on: SN12C renal
SNB-19 CNS = tested on: SNB-19 CNS
SR leukemia = tested on: SR leukemia
SW-620 colon = tested on: SW-620 colon
T-47D breast = tested on: T-47D breast
TK-10 renal = tested on: TK-10 renal
U251 CNS = tested on: U251 CNS
UACC-257 melanoma = tested on: UACC-257 melanoma
UACC-62 melanoma = tested on: UACC-62 melanoma
UO-31 renal = tested on: UO-31 renal
NCI-H226 lung = tested on: NCI-H226 lung
SNB-75 CNS = tested on: SNB-75 CNS

Cc1cc2c(cc1C)[n+](=O)c(C(=O)N1CCN(c3ccc([N+](=O)[O-])cc3)CC1)c(C)n2[O-]
TGI (786-0 renal): 34800 nM
TGI (A498 renal): > 100000 nM
TGI (A549 NSCLC): > 100000 nM
TGI (ACHN renal): 12700 nM
TGI (BT-549 breast): 49900 nM
TGI (CAKI-1 renal): > 100000 nM
TGI (CCRF-CEM leukemia): > 100000 nM
TGI (COLO 205 colon): > 100000 nM
TGI (DU-145 prostate): > 100000 nM
TGI (EKVX NSCLC): 87400 nM
TGI (HCC-2998 colon): > 100000 nM
TGI (HCT-116 colon): > 100000 nM
TGI (HCT-15 colon): > 100000 nM
TGI (HL-60(TB) leukemia): > 100000 nM
TGI (HOP-62 NSCLC): 29400 nM
TGI (HOP-92 NSCLC): > 100000 nM
TGI (HS 578T breast): > 100000 nM
TGI (HT29 colon): > 100000 nM
TGI (IGROV1 ovarian): 87700 nM
TGI (K-562 leukemia): > 100000 nM
TGI (KM12 colon): > 100000 nM
TGI (LOX IMVI melanoma): > 100000 nM
TGI (M14 melanoma): > 100000 nM
TGI (MALME-3M melanoma): > 100000 nM
TGI (MCF7 breast): > 100000 nM
TGI (MDA-MB-231 breast): 55500 nM
TGI (MDA-MB-435): > 100000 nM
TGI (MDA-N): > 100000 nM
TGI (MOLT-4 leukemia): > 100000 nM
TGI (NCI-H23 lung): > 100000 nM
TGI (NCI-H460 lung): > 100000 nM
TGI (NCI-H522 lung): > 100000 nM
TGI (NCI/ADR-RES ovarian): > 100000 nM
TGI (OVCAR-3 ovarian): > 100000 nM
TGI (OVCAR-4 ovarian): > 100000 nM
TGI (OVCAR-5 ovarian): > 100000 nM
TGI (OVCAR-8 ovarian): > 100000 nM
TGI (PC-3 prostate): > 100000 nM
TGI (RPMI-8226 leukemia): > 100000 nM
TGI (RXF 393 renal): 41300 nM
TGI (SF-268 CNS): 57100 nM
TGI (SF-295 CNS): 31600 nM
TGI (SF-539 CNS): 35400 nM
TGI (SK-MEL-2 melanoma): > 100000 nM
TGI (SK-MEL-28 melanoma): > 100000 nM
TGI (SK-MEL-5 melanoma): > 100000 nM
TGI (SK-OV-3 ovarian): 51200 nM
TGI (SN12C renal): > 100000 nM
TGI (SNB-19 CNS): > 100000 nM
TGI (SR leukemia): > 100000 nM
TGI (SW-620 colon): > 100000 nM
TGI (T-47D breast): > 100000 nM
TGI (TK-10 renal): 40400 nM
TGI (U251 CNS): 41300 nM
TGI (UACC-257 melanoma): > 100000 nM
TGI (UACC-62 melanoma): > 100000 nM
TGI (UO-31 renal): > 100000 nM

CC1OC(OC2CC(O)C3(CO)C4C(O)CC5(C)C(C6=CC(=O)OC6)CCC5(O)C4CCC3(O)C2)C(O)C(O)C1O (centres undefined)
GI50 (786-0 renal): < 12.9 nM
TGI (786-0 renal): < 17.9 nM
GI50 (A498 renal): < 18.3 nM
TGI (A498 renal): 102 nM
GI50 (A549 NSCLC): < 10.9 nM
TGI (A549 NSCLC): < 13.8 nM
GI50 (ACHN renal): 10 nM
TGI (ACHN renal): 19.1 nM
GI50 (BT-549 breast): < 12.9 nM
TGI (BT-549 breast): 20.8 nM
GI50 (CAKI-1 renal): < 14.6 nM
TGI (CAKI-1 renal): 24 nM
GI50 (COLO 205 colon): 23.9 nM
TGI (COLO 205 colon): 116 nM
GI50 (DU-145 prostate): < 12 nM
TGI (DU-145 prostate): < 15.2 nM
GI50 (EKVX NSCLC): < 10.7 nM
TGI (EKVX NSCLC): < 14.2 nM
GI50 (HCC-2998 colon): 60.6 nM
TGI (HCC-2998 colon): 204 nM
GI50 (HCT-116 colon): < 13.9 nM
TGI (HCT-116 colon): 20.9 nM
GI50 (HCT-15 colon): < 13.3 nM
TGI (HCT-15 colon): 24 nM
TGI (HL-60(TB) leukemia): 235 nM
GI50 (HOP-62 NSCLC): < 11.2 nM
TGI (HOP-62 NSCLC): < 14.6 nM
GI50 (HOP-92 NSCLC): 21.6 nM
TGI (HOP-92 NSCLC): 79.1 nM
GI50 (HS 578T breast): < 15.5 nM
TGI (HS 578T breast): 304 nM
GI50 (HT29 colon): < 14.7 nM
TGI (HT29 colon): 102 nM
GI50 (IGROV1 ovarian): < 16.1 nM
TGI (IGROV1 ovarian): 384 nM
GI50 (K-562 leukemia): < 19.8 nM
GI50 (KM12 colon): 24.9 nM
TGI (KM12 colon): 217 nM
GI50 (LOX IMVI melanoma): < 19.6 nM
TGI (LOX IMVI melanoma): 45.7 nM
GI50 (M14 melanoma): 21.2 nM
TGI (M14 melanoma): 78.4 nM
GI50 (MALME-3M melanoma): < 13.1 nM
TGI (MALME-3M melanoma): 17.2 nM
GI50 (MCF7 breast): < 16.3 nM
TGI (MCF7 breast): 290 nM
GI50 (MDA-MB-231 breast): 129 nM
TGI (MDA-MB-231 breast): 641 nM
GI50 (MDA-MB-435): 22.2 nM
TGI (MDA-MB-435): 78.5 nM
GI50 (MDA-N): < 19.5 nM
TGI (MDA-N): 122 nM
GI50 (MOLT-4 leukemia): < 12.3 nM
TGI (MOLT-4 leukemia): 1780 nM
GI50 (NCI-H226 lung): 16.7 nM
TGI (NCI-H226 lung): 64.6 nM
GI50 (NCI-H23 lung): < 10.8 nM
TGI (NCI-H23 lung): < 14.2 nM
GI50 (NCI-H460 lung): < 11.1 nM
TGI (NCI-H460 lung): 17.4 nM
GI50 (NCI-H522 lung): < 14.7 nM
TGI (NCI-H522 lung): < 31.2 nM
GI50 (NCI/ADR-RES ovarian): < 12.2 nM
TGI (NCI/ADR-RES ovarian): < 15.2 nM
GI50 (OVCAR-3 ovarian): < 13 nM
TGI (OVCAR-3 ovarian): < 17.1 nM
GI50 (OVCAR-4 ovarian): < 12.4 nM
TGI (OVCAR-4 ovarian): 17.6 nM
GI50 (OVCAR-5 ovarian): 14.7 nM
TGI (OVCAR-5 ovarian): 31.1 nM
GI50 (OVCAR-8 ovarian): < 19.9 nM
TGI (OVCAR-8 ovarian): 46 nM
GI50 (PC-3 prostate): < 14.4 nM
TGI (PC-3 prostate): 43.7 nM
GI50 (RPMI-8226 leukemia): 16.7 nM
TGI (RPMI-8226 leukemia): 206 nM
GI50 (RXF 393 renal): < 12.9 nM
TGI (RXF 393 renal): < 20.2 nM
GI50 (SF-268 CNS): < 14.2 nM
TGI (SF-268 CNS): 23.6 nM
GI50 (SF-295 CNS): < 13.8 nM
TGI (SF-295 CNS): 29.1 nM
GI50 (SF-539 CNS): < 13.2 nM
TGI (SF-539 CNS): < 18.2 nM
GI50 (SK-MEL-2 melanoma): 18.7 nM
TGI (SK-MEL-2 melanoma): 75.4 nM
GI50 (SK-MEL-28 melanoma): 64.6 nM
TGI (SK-MEL-28 melanoma): 251 nM
GI50 (SK-MEL-5 melanoma): < 15.1 nM
TGI (SK-MEL-5 melanoma): 26.7 nM
GI50 (SK-OV-3 ovarian): 15.7 nM
TGI (SK-OV-3 ovarian): 55.2 nM
TGI (SN12C renal): 22.8 nM
GI50 (SNB-19 CNS): 29.6 nM
TGI (SNB-19 CNS): 177 nM
TGI (SNB-75 CNS): 99 nM
GI50 (SR leukemia): 22.1 nM
TGI (SR leukemia): 54.6 nM
GI50 (SW-620 colon): 20 nM
TGI (SW-620 colon): 702 nM
GI50 (T-47D breast): < 12.1 nM
TGI (T-47D breast): 34.2 nM
GI50 (TK-10 renal): < 10.5 nM
TGI (TK-10 renal): 32.3 nM
GI50 (U251 CNS): 21.9 nM
TGI (U251 CNS): 68.3 nM
GI50 (UACC-257 melanoma): 23.7 nM
TGI (UACC-257 melanoma): 105 nM
GI50 (UACC-62 melanoma): 38.1 nM
TGI (UACC-62 melanoma): 173 nM
GI50 (UO-31 renal): < 12.4 nM
TGI (UO-31 renal): 19.8 nM
